Reference: ChEMBL document CHEMBL5137064, “Therapeutic Potential and Activity Modulation of the Protein Lysine Deacylase Sirtuin 5” (J Med Chem, 2022)

Experiments:
[1] = Cytotoxicity against human PDAC cells assessed as cell viability; type: functional, cell-based
[2] = biological target: T1, NAD-dependent protein deacetylase sirtuin-2 (Homo sapiens, UniProt Q8IXJ6); experiment: Inhibition of recombinant SIRT2 (unknown origin) using […] as substrate incubated for 4 hrs by homogenous fluorescent deacetylase assay
T1 sequence (Q8IXJ6 whole entry): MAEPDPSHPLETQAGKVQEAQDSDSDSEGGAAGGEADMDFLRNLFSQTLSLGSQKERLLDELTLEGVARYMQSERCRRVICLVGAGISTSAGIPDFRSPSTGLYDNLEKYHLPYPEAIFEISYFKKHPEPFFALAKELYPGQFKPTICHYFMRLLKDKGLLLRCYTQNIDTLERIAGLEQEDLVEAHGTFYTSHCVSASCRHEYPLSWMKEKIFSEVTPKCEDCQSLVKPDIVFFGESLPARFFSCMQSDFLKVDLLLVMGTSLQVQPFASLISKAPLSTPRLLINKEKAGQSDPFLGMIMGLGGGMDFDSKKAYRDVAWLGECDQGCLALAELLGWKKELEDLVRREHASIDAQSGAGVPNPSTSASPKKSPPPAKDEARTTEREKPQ

Structure (SMILES)	IC50 [1] [µM]	IC50 [2] [µM]
CCOC(=O)C1=CN(C(=O)c2ccccc2)C=C(C(=O)OCC)C1c1cccc(OC)c1	25.4	–
Cc1ccc(C(=O)Nc2ccc(S(=O)(=O)O)c3cc(S(=O)(=O)O)cc(S(=O)(=O)O)c23)cc1NC(=O)c1cccc(NC(=O)Nc2cccc(C(=O)Nc3cc(C(=O)Nc4ccc(S(=O)(=O)O)c5cc(S(=O)(=O)O)cc(S(=O)(=O)O)c45)ccc3C)c2)c1 [SURAMIN]	–	1.15
